Assay results: patent US10376520B2, “Methods for the treatment of cardiovascular disorders” (Galapagos NV, priority 2015, dated 2019)

System: Subjects With Active Crohn's Disease
Assay: [HDL] determination, Study 5 (Crohn's disease)
Type: in vivo, human
Settings: for [HDL] Mean CFB - 10 weeks results: 200 mg q.d.
Source text: Double-Blind, Randomized, Placebo-Controlled, Multi-Centre Study to Investigate the Efficacy and Safety of Compound 1 in Subjects With Active Crohn's Disease With Evidence of Mucosal Ulceration.
This is a double-blind, randomized, placebo-controlled, multi-centre Phase 2 study to investigate the efficacy and safety of Compound 1 administered once daily for the treatment of active CD with evidence of mucosal ulceration. The pharmacokinetics (including a PK substudy) and pharmacodynamics of Compound 1 and metabolite in CD will also be characterised.
A total of 180 eligible subjects will be randomized to receive Compound 1 or placebo in addition to their stable background treatment (eg, corticosteroids, aminosalicylates, or CD-related antibiotics). The study will consist of 2 parts, with total treatment duration of 20 weeks. Randomization in Part 1 will be stratified according the subject's previous anti-TNF exposure/response, CRP level at Screening, and oral corticosteroid use at visit Day −1.
After the first 10 weeks of treatment in Part 1, patients will be re-randomized for Part 2 as shown in the diagram below and will be stratified according to the subject's clinical response, previous anti-TNF exposure/response, and oral corticosteroid use at visit Day −1.
The following assays were conducted at Eurofins Global Central Laboratory, Bergschot 71, 4817 PA Breda, The Netherlands, and at Quest Diagnostics, Clinical Trials, Quest House, 125-135 Staines Road, Hounslow, Middlesex, TW3 3JB, United Kingdom. The assays for Study 5 were performed at BARC Europe, 3B, Industrie Park, Zwijnaarde, B-9052 Ghent, Belgium.
This assay relies on a homogeneous enzymatic colorimetric test. In the presence of magnesium ions, dextran sulfate selectively forms water-soluble complexes with LDL, VLDL and chylomicrons which are resistant to PEG-modified enzymes.
The cholesterol concentration of [HDL]-cholesterol is determined enzymatically by cholesterol esterase and cholesterol oxidase coupled with PEG to the amino groups (approx. 40%).
In the presence of peroxidase, the hydrogen peroxide generated reacts with 4-amino-antipyrine and Sodium N-(2-hydroxy-3-sulfopropyl)-3,5-dimethoxyaniline (HSDA) to form a purple-blue dye. The color intensity of this dye is directly proportional to the cholesterol concentration and is measured photometrically.
Human serum and plasma samples [HDL] determination was done on a Roche/Hitachi Cobas c 701/702 system which automatically calculate the analyte concentration of each sample. Samples containing precipitates are centrifuged before performing the assay.

[1] = 200 mg q.d. week 0 to 10, to 100 mg q.d. week 10 to 20, week 4
[2] = 200 mg q.d. week 0 to 10, to 100 mg q.d. week 10 to 20, week 6
[3] = 200 mg q.d. week 0 to 10, to 100 mg q.d. week 10 to 20, week 10
[4] = 200 mg q.d. week 0 to 10, to 100 mg q.d. week 10 to 20, week 12
[5] = 200 mg q.d. week 0 to 10, to 100 mg q.d. week 10 to 20, week 16
[6] = 200 mg q.d. week 0 to 10, to 100 mg q.d. week 10 to 20, week 20
[7] = 200 mg q.d. week 0 to 10, to placebo week 10 to 20, week 2
[8] = 200 mg q.d. week 0 to 10, to placebo week 10 to 20, week 4
[9] = 200 mg q.d. week 0 to 10, to placebo week 10 to 20, week 6
[10] = 200 mg q.d. week 0 to 10, to placebo week 10 to 20, week 10
[11] = 200 mg q.d. week 0 to 10, to placebo week 10 to 20, week 12
[12] = 200 mg q.d. week 0 to 10, to placebo week 10 to 20, week 16
[13] = 200 mg q.d. week 0 to 10, to placebo week 10 to 20, week 20
[14] = continued 200 mg q.d. (N = 77), week 2
[15] = continued 200 mg q.d. (N = 77), week 4
[16] = continued 200 mg q.d. (N = 77), week 6
[17] = continued 200 mg q.d. (N = 77), week 10
[18] = continued 200 mg q.d. (N = 77), week 12
[19] = continued 200 mg q.d. (N = 77), week 16
[20] = continued 200 mg q.d. (N = 77), week 20
[21] = placebo week 0 to 10, then 100 mg q.d. (N = 22), week 12
[22] = placebo week 0 to 10, then 100 mg q.d. (N = 22), week 16
[23] = placebo week 0 to 10, then 100 mg q.d. (N = 22), week 20
[24] = placebo week 0 to 10, to 100 mg q.d. week 10 to 20, week 12
[25] = placebo week 0 to 10, to 100 mg q.d. week 10 to 20, week 16
[26] = placebo week 0 to 10, to 100 mg q.d. week 10 to 20, week 20

## O=C(Nc1nc2cccc(-c3ccc(CN4CCS(=O)(=O)CC4)cc3)n2n1)C1CC1 [Compound 1, cyclopropanecarboxylic acid {5-[4-(1,1-dioxo-thiomorpholin-4-ylmethyl)-phenyl]-[1,2,4]triazolo[1,5-a]pyridin-2yl}-amide]
[1]
  [HDL] Mean CFB - 20 weeks results: 25.33%
  [HDL] Median CFB - 10 weeks results: 16.75%
[2]
  [HDL] Mean CFB - 20 weeks results: 25.93%
  [HDL] Median CFB - 10 weeks results: 23.04%
[3]
  [HDL] Mean CFB - 20 weeks results: 26.29%
  [HDL] Median CFB - 10 weeks results: 19.61%
[4]
  [HDL] Mean CFB - 20 weeks results: 14.27%
  [HDL] Median CFB - 10 weeks results: 10.66%
[5]
  [HDL] Mean CFB - 20 weeks results: 11.19%
  [HDL] Median CFB - 10 weeks results: 2.24%
[6]
  [HDL] Mean CFB - 20 weeks results: 15.54%
  [HDL] Median CFB - 10 weeks results: 10.18%
[7]
  [HDL] Mean CFB - 20 weeks results: 13.75%
  [HDL] Median CFB - 10 weeks results: 13.54%
[8]
  [HDL] Mean CFB - 20 weeks results: 23.62%
  [HDL] Median CFB - 10 weeks results: 27.96%
[9]
  [HDL] Mean CFB - 20 weeks results: 13.52%
  [HDL] Median CFB - 10 weeks results: 13.45%
[10]
  [HDL] Mean CFB - 20 weeks results: 14.87%
  [HDL] Median CFB - 10 weeks results: 15.66%
[11]
  [HDL] Mean CFB - 20 weeks results: −3.87%
  [HDL] Median CFB - 10 weeks results: −1.75%
[12]
  [HDL] Mean CFB - 20 weeks results: −7.46%
  [HDL] Median CFB - 10 weeks results: −3.07%
[13]
  [HDL] Mean CFB - 20 weeks results: −8.40%
  [HDL] Median CFB - 10 weeks results: −4.82%
Week 2
  [HDL] Mean CFB - 10 weeks results: 17.940%
Week 4
  [HDL] Mean CFB - 10 weeks results: 19.414%
Week 6
  [HDL] Mean CFB - 10 weeks results: 20.199%
Week 10
  [HDL] Mean CFB - 10 weeks results: 19.734%
[14]
  [HDL] Mean CFB - 20 weeks results: 0.23 mmol/L
  [HDL] Median CFB - 20 weeks results: 0.21 mmol/L
[15]
  [HDL] Mean CFB - 20 weeks results: 0.18 mmol/L
  [HDL] Median CFB - 20 weeks results: 0.16 mmol/L
[16]
  [HDL] Mean CFB - 20 weeks results: 0.24 mmol/L
  [HDL] Median CFB - 20 weeks results: 0.21 mmol/L
[17]
  [HDL] Mean CFB - 20 weeks results: 0.22 mmol/L
  [HDL] Median CFB - 20 weeks results: 0.25 mmol/L
[18]
  [HDL] Mean CFB - 20 weeks results: 0.20 mmol/L
  [HDL] Median CFB - 20 weeks results: 0.15 mmol/L
[19]
  [HDL] Mean CFB - 20 weeks results: 0.17 mmol/L
  [HDL] Median CFB - 20 weeks results: 0.20 mmol/L
[20]
  [HDL] Mean CFB - 20 weeks results: 0.10 mmol/L
  [HDL] Median CFB - 20 weeks results: 0.15 mmol/L
[21]
  [HDL] Mean CFB - 20 weeks results: 0.03 mmol/L
  [HDL] Median CFB - 20 weeks results: 0.12 mmol/L
[22]
  [HDL] Mean CFB - 20 weeks results: 0.09 mmol/L
  [HDL] Median CFB - 20 weeks results: 0.12 mmol/L
[23]
  [HDL] Mean CFB - 20 weeks results: 0.00 mmol/L
  [HDL] Median CFB - 20 weeks results: 0.10 mmol/L
[24]
  [HDL] Mean CFB - 20 weeks results: 5.75%
  [HDL] Median CFB - 10 weeks results: 8.64%
[25]
  [HDL] Mean CFB - 20 weeks results: 10.06%
  [HDL] Median CFB - 10 weeks results: 8.63%
[26]
  [HDL] Mean CFB - 20 weeks results: 3.77%
  [HDL] Median CFB - 10 weeks results: 11.27%
